Experiments:
[1] = test system: neural stem and progenitor cells in the dentate gyrus; experiment: Neural stem and progenitor cell differentiation: BrdU/NeuN/S100β colocalization in dentate gyrus 42 days after single AIT-082 dose; assay type: in vivo; details: adult mice
Procedure: AIT-082 was administered intraperitoneally to adult mice (5-7 per group) at a dose of 1 -100 mg/kg. Saline was given as a negative control. Starting two hours after AIT-082 administration, animals received four intraperitoneal injections of bromodeoxyuridine (BrdU; 50 mg/kg each) at 3 hr intervals. Animals were perfused at 42 days after the AIT-082 administration. During these 42 days newly born neural stem cells have enough time to differentiate into neurons, astrocytes and other brain cells. This treatment regimen is outlined in FIG. 3.
Animals were perfused, brains treated and sections prepared as described for Example 1.
Every sixth section through the rostral-caudal extent of the hippocampus was immunostained with rat anti-BrdU paired with a Alexa 568 goat anti-rat IgG (red), mouse anti-NeuN (a neuronal marker) paired with Alexa 488 goat anti-mouse IgG (green), and rabbit anti-S100β (an astrocytes marker) paired with Alexa 647 goat anti-rabbit IgG (blue). Stereological techniques were used to estimate the total number of BrdU-positive nuclei in the dentate gyrus and the number of BrdU-positive cells that were also positive for NeuN (i.e indicating newly formed neurons) or S100β (indicating newly formed astrocytes). Cells that were BrdU-positive and not positive for either NeuN or S100β were labeled “other”. […]

[2] = test system: neural stem and progenitor cells in the dentate gyrus; experiment: Neural stem and progenitor cell proliferation: BrdU labeling in dentate gyrus 24 hr after single AIT-082 dose; assay type: in vivo; details: adult mice, single intraperitoneal dose 0.1-10 mg/kg, perfused at 24 hr; normalized to saline control, two experiments combined (FIG. 2)
Procedure: In two separate experiments, AIT-082 was administered intraperitoneally to adult mice (5-7 per group) at 0.01-100 mg/kg. Saline was given as a negative control. Starting two hours after AIT-082 administration, animals received four intraperitoneal injections of bromodeoxyuridine (BrdU; 50 mg/kg each) at 3 hr intervals. BrdU is a thymidine analogue that is incorporated into DNA during synthesis and thus labels newly formed cells. Animals were perfused at 24 hr after the AIT-082 administration. This treatment regimen is outlined in FIG. 1.
Animals were perfused transcardially with 50 mL ice-cold phosphate buffered saline (PBS) and then 100 mL of 4% paraformaldehyde in PBS. Brains were removed, post-fixed in 4% paraformaldehyde for 24 hr at 4° C., and then transferred to 30% sucrose at 4° C. for a minimum of 3 days before sectioning. Coronal sections (40 μm) were prepared using a freezing microtome and stored in cryoprotectant at −20° C. before immunostaining for BrdU.
Every sixth section through the rostral-caudal extent of the hippocampus was immunostained for BrdU with mouse anti-BrdU paired with a biotinylated goat anti-mouse IgG. Avidin-biotin-horseradish peroxidase (HRP) complex was applied to sections and immunoreactivity visualized by reacting diaminobenzidine with the HRP. Stereological techniques were used to estimate the total number of BrdU-positive cells in the dentate gyrus.

O=C(CCn1cnc2c(=O)[nH]cnc21)Nc1ccc(C(=O)O)cc1 [AIT-082, N-4-[[3-(6-oxo-1,6-dihydropurin-9-yl)-1-oxopropyl]amino] benzoic acid] was tested, and the “number of BrdU-positive cells in dentate gyrus” value ([1]; single intraperitoneal dose 1 or 10 mg/kg, perfused at 42 days (FIG. 5A)) was “increase”, the “number of new neurons formed in the dentate gyrus (BrdU- and NeuN-positive cells)” value ([1]; single intraperitoneal dose, perfused at 42 days (FIG. 5B)) was “significant increase” and the “total number of BrdU-positive cells in dentate gyrus” value [2] was “statistically significant increase”.
